# Measured values: US20260183320A1, “METHOD FOR TREATING CANCER BY COMBINING ALKYLATING AGENT PRODRUG AND CELL CYCLE INHIBITOR” (ASCENTAWITS PHARMACEUTICALS, LTD., priority 2022, published 2026)
# How the values were obtained:
# [1] = system: p53-deficient (HT29) cell line; assay: CTG cell proliferation assay, HT29 cell line; type: cell-based; settings: for IC50: Homo sapiens, 72 h
# Method: (§1) Each CTG cell proliferation assay included the steps as follows: • 1) An H460 or HT29 cell suspension was added to a 96-well plate at 100 μL per well so that each well contained 2000 or 10000 cells. • 2) The cells were incubated overnight at 37° C. in an incubator with 5% CO2. • 3) Treatment with Compounds
# (§2) Combination therapy: 1 μL of adavosertib (at four concentrations), AZD7762 (at four concentrations), palbociclib (at four concentrations) or ceralasertib (at three concentrations) was added to each well and shaken gently until homogeneous mixing.
# (§3) 7) Chemiluminescence was read for 1000 ms on a multimode microplate reader. • 8) IC50 (half-maximal inhibitory concentration) values of the compounds were calculated using the GraphPad Prism 5 software. 1.
# [2] = system: wild-type p53-expressing (H460) cell line; assay: CTG cell proliferation assay, H460 cell line; type: cell-based; settings: for IC50: Homo sapiens, 72 h
# Method: as §1, §2, §3
# [3] = HT29 (p53-deficient), various concentrations, also low
# [4] = H460 (wild-type p53), all concentrations
# [5] = H460 (wild-type p53), both drugs at low concentrations
smiles,measurement,setting,value
O=[N+]([O-])c1ccc(C(OP(=O)(N2CC2)N2CC2)C(F)(F)F)cc1Oc1ccc(-c2ccc(F)cc2)c(F)c1 (stereo not shown) [AST],additive cytotoxic effect in combination therapy with palbociclib,"[1]; HT29 (p53-deficient), drugs at low concentrations",certain additive cytotoxic effects
same,additive cytotoxic effect in combination therapy with ceralasertib,"[1]; HT29 (p53-deficient), various concentrations",significant additive cytotoxic effects
same,additive cytotoxic effect in combination therapy with AZD7762,[1]; [3],significant additive cytotoxic effects
same,additive cytotoxic effect in combination therapy with adavosertib,[1]; [3],significant additive cytotoxic effects
same,additive cytotoxic effect in combination therapy with palbociclib,[1]; [3],significant additive cytotoxic effects
same,Ratio single/combo,"[1]; HT29, IC50 monotherapy / IC50 with 100 nM AZD7762",95.61
same,Ratio single/combo,"[1]; HT29, IC50 monotherapy / IC50 with 100 nM adavosertib",44.97
same,Ratio single/combo,"[1]; HT29, IC50 monotherapy / IC50 with 130 nM AZD7762",105.70
same,Ratio single/combo,"[1]; HT29, IC50 monotherapy / IC50 with 130 nM adavosertib",95.54
same,Ratio single/combo,"[1]; HT29, IC50 monotherapy / IC50 with 160 nM AZD7762",107.78
same,Ratio single/combo,"[1]; HT29, IC50 monotherapy / IC50 with 160 nM adavosertib",114.24
same,IC50,"[1]; HT-29, 72 h, HT29, monotherapy",1370 nM
same,IC50,"[1]; HT-29, HT29, with 50 nM palbociclib (2 h pretreatment)",1060 nM
same,IC50,"[1]; HT-29, HT29, with 100 nM AZD7762 (2 h pretreatment)",14.3 nM
same,IC50,"[1]; HT-29, HT29, with 100 nM adavosertib (2 h pretreatment)",30.5 nM
same,IC50,"[1]; HT-29, HT29, with 130 nM AZD7762 (2 h pretreatment)",13 nM
same,IC50,"[1]; HT-29, HT29, with 130 nM adavosertib (2 h pretreatment)",14.4 nM
same,IC50,"[1]; HT-29, HT29, with 160 nM AZD7762 (2 h pretreatment)",12.7 nM
same,IC50,"[1]; HT-29, HT29, with 160 nM adavosertib (2 h pretreatment)",12 nM
same,IC50,"[1]; HT-29, HT29, with 1000 nM palbociclib (2 h pretreatment)",1740 nM
same,IC50,"[1]; HT-29, HT29, with 5000 nM palbociclib (2 h pretreatment)",1570 nM
same,additive cytotoxic effect in combination therapy with AZD7762,"[2]; H460 (wild-type p53), AZD7762 160 nM",certain additive cytotoxic effects
same,additive cytotoxic effect in combination therapy with adavosertib,[2]; [4],did not exhibit any additive toxic effects
same,additive cytotoxic effect in combination therapy with palbociclib,[2]; [4],did not exhibit any significant additive cytotoxic effects
same,additive cytotoxic effect in combination therapy with AZD7762,[2]; [5],not significant
same,additive cytotoxic effect in combination therapy with adavosertib,[2]; [5],not significant
same,additive cytotoxic effect in combination therapy with ceralasertib,[2]; [5],not significant
same,additive cytotoxic effect in combination therapy with AZD7762,"[2]; H460 (wild-type p53), medium and high concentrations",certain additive cytotoxic effects
same,additive cytotoxic effect in combination therapy with ceralasertib,"[2]; H460 (wild-type p53), medium or high concentration",certain additive cytotoxic effects
same,additive cytotoxic effect in combination therapy with adavosertib,"[2]; H460 (wild-type p53), medium or high concentrations",certain additive cytotoxic effects
same,additive cytotoxic effect in combination therapy with AZD7762,"[2]; H460 (wild-type p53), other concentrations than 160 nM AZD7762",did not exhibit any additive cytotoxic effects
same,Ratio single/combo,"[2]; H460, IC50 monotherapy / IC50 with 0.5 nM AZD7762",1.20
same,Ratio single/combo,"[2]; H460, IC50 monotherapy / IC50 with 0.5 nM adavosertib",1.24
same,Ratio single/combo,"[2]; H460, IC50 monotherapy / IC50 with 6.4 nM AZD7762",1.00
same,Ratio single/combo,"[2]; H460, IC50 monotherapy / IC50 with 6.4 nM adavosertib",0.90
same,Ratio single/combo,"[2]; H460, IC50 monotherapy / IC50 with 160 nM AZD7762",3.81
same,Ratio single/combo,"[2]; H460, IC50 monotherapy / IC50 with 160 nM adavosertib",1.19
same,Ratio single/combo,"[2]; H460, IC50 monotherapy / IC50 with 800 nM adavosertib",1.41
same,Ratio combo/single,"[2]; H460, IC50 with 0.05 nM palbociclib / IC50 monotherapy",1.08
same,Ratio combo/single,"[2]; H460, IC50 with 0.64 nM palbociclib / IC50 monotherapy",1.35
same,Ratio combo/single,"[2]; H460, IC50 with 400 nM palbociclib / IC50 monotherapy",2.55
same,IC50,"[2]; NCI-H460, 72 h, H460, monotherapy",4.08 nM
same,IC50,"[2]; NCI-H460, H460, with 0.05 nM palbociclib (2 h pretreatment)",4.39 nM
same,IC50,"[2]; NCI-H460, H460, with 0.5 nM AZD7762 (2 h pretreatment)",3.4 nM
same,IC50,"[2]; NCI-H460, H460, with 0.5 nM adavosertib (2 h pretreatment)",3.29 nM
same,IC50,"[2]; NCI-H460, H460, with 0.64 nM palbociclib (2 h pretreatment)",5.5 nM
same,IC50,"[2]; NCI-H460, H460, with 6.4 nM AZD7762 (2 h pretreatment)",4.08 nM
same,IC50,"[2]; NCI-H460, H460, with 6.4 nM adavosertib (2 h pretreatment)",4.53 nM
same,IC50,"[2]; NCI-H460, H460, with 160 nM AZD7762 (2 h pretreatment)",1.07 nM
same,IC50,"[2]; NCI-H460, H460, with 160 nM adavosertib (2 h pretreatment)",3.44 nM
same,IC50,"[2]; NCI-H460, H460, with 400 nM palbociclib (2 h pretreatment)",10.4 nM
same,IC50,"[2]; NCI-H460, H460, with 800 nM adavosertib (2 h pretreatment)",2.89 nM
